Results taken from patent US20260226069A1, “GCN2 AND PERK KINASE MODULATORS AND METHODS OF USE THEREOF” (Deciphera Pharmaceuticals, LLC, priority 2023, published 2026).

Tests used:
[1] = test system: ATF4 in Thapsigargin stimulated CCRF-CEM cells; assay: CCRF-CEM TG ATF4 ELISA, phenotypic assay for cellular inhibition of PERK preactivated by thapsigargin; assay type: cell-based; conditions: Homo sapiens, 3 h, compound three hours then 1 μM thapsigargin for an additional hour
Method: CCRF-CEM TG ATF4 ELISA, a Phenotypic Assay for Cellular Inhibition of PERK Preactivated by Thapsigargin (TG)
CCRF-CEM leukemia cells (catalog #CCL-116) were obtained from the American Type Culture Collection (ATTC, Manassas, VA). Briefly, cells were grown in RPMI-1640 medium supplemented with 10% heat-inactivated fetal bovine serum (Invitrogen, Carlsbad, CA) and 1% Penicillin/Streptomycin/L-Glutamine at 37° C., 5% CO2, and 95% humidity. Cells were expanded until reaching one million cells per mL at which time they were subcultured or harvested for assay use. One million five hundred thousand cells per well in 1 mL complete growth medium were dispensed into 12-well plates and incubated overnight. A serial dilution of test compound was added and cells were incubated at 37° C., 5% CO2, and 95% for three hours, then 1 μM thapsigargin was added and cells were incubated for an additional hour at 37° C., 5% CO2, and 95%. Cells were lysed then ATF4 levels were measured using an ELISA assay (Proteintech, Rosemont, IL). Absorbance was measured at 450 nm and 544 nM using a Synergy2 or equivalent reader (Biotek, Winooski VT). Data was analyzed using PRISM software (Graphpad, San Diego, CA) to calculate IC50 values.

[2] = test system: ASNase treated CCRF-CEM cells; assay: CCRF-CEM ASNase cell proliferation assay, phenotypic assay for cellular inhibition of GCN2; assay type: cell-based; conditions: Homo sapiens, 1 mU/mL ASNase, 72 h, resazurin
Method: CCRF-CEM ASNase Cell Proliferation Assay, a Phenotypic Assay for Cellular Inhibition of GCN2.
CCRF-CEM leukemia cells (catalog #CCL-116) were obtained from the American Type Culture Collect (ATTC, Manassas, VA). Cells were grown in RPMI-1640 medium supplemented with 10% heat-inactivated fetal bovine serum (Invitrogen, Carlsbad, CA) and 1% Penicillin/Streptomycin/L-Glutamine at 37° C., 5% CO2, and 95% humidity. Cells were expanded until reaching one million cells per mL at which time they are subcultured or harvested for assay use. Ten thousand cells per well in 200 μL RPMI-1640 supplemented with 10% heat-inactivated fetal bovine serum and 1% Penicillin/Streptomycin were dispensed into a 96-well black clear bottom plate. A serial dilution of test compound and 1 mU/mL ASNase was added in triplicate and plates were incubated for 72 h at 37° C., 5% CO2, and 95% humidity. At the end of the incubation, 40 μL of a […] solution of resazurin (Sigma, St. Louis, MO) in PBS was added to each well of the plate and plates were incubated for an additional 6 h at 37° C., 5% CO2, and 95% humidity. Plates were read on a Synergy2 or equivalent reader (Biotek, Winooski VT) using an excitation of 540 nm and an emission of 600 nm. Data was analyzed using GraphPad Prism software (GraphPad, San Diego, CA) to calculate IC50 values.

PERK kinase = target: T1, PERK kinase (Homo sapiens, UniProt Q9NZJ5, A704S); assay: Biochemical assay for PERK (coupled pyruvate kinase/lactate dehydrogenase assay); conditions: 10 nM PERK, 1 mM ATP, reaction rate 2-3 h time frame, 30° C.
T1 construct: GST (with thrombin site LVPRGS); purchased Beryllium
T1 sequence (Q9NZJ5 with tags, fused parts or gaps A704S): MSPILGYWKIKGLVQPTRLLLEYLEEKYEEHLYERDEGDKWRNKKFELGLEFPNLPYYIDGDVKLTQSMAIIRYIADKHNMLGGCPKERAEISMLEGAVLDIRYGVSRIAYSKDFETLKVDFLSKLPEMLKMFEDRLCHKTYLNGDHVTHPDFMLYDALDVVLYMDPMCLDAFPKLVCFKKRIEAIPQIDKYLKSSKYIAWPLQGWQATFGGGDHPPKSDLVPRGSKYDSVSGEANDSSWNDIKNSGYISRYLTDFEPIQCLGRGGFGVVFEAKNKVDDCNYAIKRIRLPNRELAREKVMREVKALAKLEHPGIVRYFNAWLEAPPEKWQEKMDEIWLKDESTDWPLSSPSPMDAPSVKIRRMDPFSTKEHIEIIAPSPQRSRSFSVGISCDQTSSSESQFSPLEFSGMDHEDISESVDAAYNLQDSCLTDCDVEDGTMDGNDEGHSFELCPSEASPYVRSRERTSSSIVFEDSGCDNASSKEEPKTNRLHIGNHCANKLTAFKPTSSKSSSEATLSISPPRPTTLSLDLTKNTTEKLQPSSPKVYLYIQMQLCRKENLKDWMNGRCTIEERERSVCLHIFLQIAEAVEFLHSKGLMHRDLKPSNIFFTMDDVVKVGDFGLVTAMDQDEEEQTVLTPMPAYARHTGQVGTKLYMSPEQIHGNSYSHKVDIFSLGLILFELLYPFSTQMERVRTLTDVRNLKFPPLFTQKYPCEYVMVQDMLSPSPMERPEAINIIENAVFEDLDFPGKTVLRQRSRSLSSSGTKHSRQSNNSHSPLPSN
Method: Biochemical Assay for PERK
Activity of PERK kinase was determined spectroscopically using a coupled pyruvate kinase/lactate dehydrogenase assay that continuously monitors the ATP hydrolysis-dependent oxidation of NADH (Science, 2000, 289, 1938-1942). Assays were conducted in 384-well plates (100 μL final volume) using 10 nM PERK (from Beryllium), 0.25 mg/mL Myelin Basic Protein substrate, 1.5 units pyruvate kinase, 2.1 units lactate dehydrogenase, 1 mM phosphoenol pyruvate, 0.28 mM NADH and 1 mM ATP in assay buffer (100 mM Tris, pH 7.5, 15 mM MgCl2, 0.5 mM DTT, 0.004% (w/v) BSA, and 0.004% Triton X-100). Inhibition of PERK was measured by adding serial diluted test compound (final assay concentration of 1% DMSO). A decrease in absorption at 340 nm was monitored continuously for 6 hours at 30° C. on a multi-mode microplate reader (BioTek). The reaction rate was calculated using the 2-3 h time frame. The reaction rate at each concentration of compound was converted to percent inhibition using controls (i.e., reaction with no test compound and reaction with a known inhibitor) and IC50 values were calculated using software routines in Prism (GraphPad software).

GCN2 kinase = target: T2, GCN2 kinase (Homo sapiens, UniProt Q9P2K8); assay: Biochemical assay for GCN2 (TR-FRET kinase activity assay); conditions: 2 nM GCN2, 1 mM ATP, 3-hour incubation
T2 construct: G556E with a; purchased Carna Biosciences
Method: Biochemical assay for GCN2
Activity of GCN2 kinase was determined using a TR-FRET kinase activity assay (e.g., Analytical Biochemistry, 2006, 356, 108-116). Assays were conducted in 384-well plates (13 μL assay volume) using 2 nM GCN2 (Carna Biosciences), 130 nM GFP-EIf2α (Invitrogen), 0.2 mg/mL E. coli tRNA (sigma) and 1 mM ATP in kinase buffer (Invitrogen). Inhibition of GCN2 was measured by adding serial diluted test compound (final assay concentration of 0.5% DMSO) followed by a 3-hour incubation. Tb-peIF2α (pSer52) antibody (Invitrogen) (2 nM final assay concentration) in kinase buffer containing EDTA (final assay concentration of 20 mM) was added. After a 60 min incubation at room temperature, TR-FRET was monitored using an excitation wavelength of 340 nm and emission wavelengths of 490 nm and 520 nm. The emission ratio (520/490) at each compound concentration of was converted to percent inhibition using controls (i.e., reaction with no test compound and reaction with a known inhibitor) and IC50 values were calculated by fitting a four-parameter sigmoidal curve to the data using Prism (GraphPad software).

SMILES	IC50 [1] [nM]	IC50 [2] [nM]	IC50 (PERK kinase) [nM]	IC50 (GCN2 kinase) [nM]
CCC(=O)OCc1cc(Cl)cc(S(=O)(=O)Nc2cccc(-c3nc(C)n4ccnc(N)c34)c2F)c1Cl [Example 32]	1000 to 10000	1000 to 10000	500 to 1000	
CCCC(=O)OCc1cc(Cl)cc(S(=O)(=O)Nc2cccc(-c3nc(C)n4ccnc(N)c34)c2F)c1Cl [Example 33]	100 to 500	100 to 500	500 to 1000	1000 to 10000
Cn1cc(-c2cccc(NS(=O)(=O)c3ccc(Br)c(C(F)(F)F)c3)c2F)c2c(N)ncnc21 [Example 36]	1000 to 10000	1000 to 10000	100 to 500	1000 to 10000
COc1cc(F)c(S(=O)(=O)Nc2cccc(-c3cn(C)c4ncnc(N)c34)c2F)cc1Cl [Example 37]	100 to 500	500 to 1000	≤ 100	100 to 500
COC(=O)c1cccc(S(=O)(=O)Nc2cccc(-c3cn(C)c4ncnc(N)c34)c2F)c1Cl [Example 39]	1000 to 10000	1000 to 10000	100 to 500	1000 to 10000
COC(=O)c1cc(Cl)cc(S(=O)(=O)Nc2cccc(-c3cn(C)c4ncnc(N)c34)c2F)c1Cl [Example 40]	1000 to 10000	1000 to 10000	≤ 100	1000 to 10000
COc1cc(Cl)c(S(=O)(=O)Nc2cccc(-c3cn(C)c4ncnc(N)c34)c2F)cc1Cl [Example 41]	100 to 500	1000 to 10000	≤ 100	1000 to 10000
Cn1cc(-c2cccc(NS(=O)(=O)c3cc(Cl)cc(Br)c3Cl)c2F)c2c(N)ncnc21 [Example 42]	1000 to 10000	1000 to 10000	≤ 100	100 to 500
COc1ccc(S(=O)(=O)Nc2cccc(-c3cn(C)c4ncnc(N)c34)c2F)cc1Cl [Example 44]	500 to 1000	1000 to 10000	≤ 100	1000 to 10000
COc1ncc(Cl)cc1S(=O)(=O)Nc1cccc(-c2cn(C)c3ncnc(N)c23)c1F [Example 45, N-(3-(4-amino-7-methyl-7H-pyrrolo[2,3-d]pyrimidin-5-yl)-2-fluorophenyl)-5-chloro-2-methoxypyridine-3-sulfonamide]	100 to 500	1000 to 10000	≤ 100	1000 to 10000
COCc1cc(Cl)cc(S(=O)(=O)Nc2cccc(-c3nc(C)n4ccnc(N)c34)c2F)c1Cl [Example 48, N-(3-(8-amino-3-methylimidazo[1,5-a]pyrazin-1-yl)-2-fluorophenyl)-2,5-dichloro-3-(methoxymethyl)benzenesulfonamide]	1000 to 10000	1000 to 10000	≤ 100	500 to 1000
Cn1cc(-c2cccc(NS(=O)(=O)c3cc(Cl)cc(CN)c3Cl)c2F)c2c(N)ncnc21 [Example 49]	500 to 1000	1000 to 10000	100 to 500	1000 to 10000
CNCc1cc(Cl)cc(S(=O)(=O)Nc2cccc(-c3cn(C)c4ncnc(N)c34)c2F)c1Cl [Example 50]	1000 to 10000	1000 to 10000	500 to 1000	1000 to 10000
CO/N=C\c1cc(Cl)cc(S(=O)(=O)Nc2cccc(-c3cn(C)c4ncnc(N)c34)c2F)c1Cl [Example 53]	1000 to 10000	1000 to 10000	≤ 100	1000 to 10000
